Test results taken from US20150366788A1, “[…] EXTRACTS AND METHODS OF USE” (AVON PRODUCTS, INC, priority 2013, published 2015).

Tested on: dorsal forearm skin of healthy female Caucasian subjects
Assay: In vivo biopsy (forearm patch, histology endpoints)
Parameters: species or system human
Conditions: 0.05% active (positive control), semi-occlusion patch, 3 weeks
Protocol: Healthy female Caucasian subjects aged 30-65, with skin type II or III and mild to moderate photo damage, were treated on the dorsal forearm for 3 weeks (3 consecutive rounds of 5×24 hour) under semi-occlusion patches. Test articles including active ingredients, vehicle controls, and retinol were applied in a randomized allocation on 6 sites on each forearm. The application dose was 2 mg/cm^2. After 3 week treatment, a 2 mm punch biopsy was obtained from each treatment site and fixed in 10% buffered formalin. Tissue samples then embedded in paraffin, sectioned (5 μm thickness), and stained for skin markers after re-hydration. […] Retinol at a active concentration of 0.05% was used a positive control. Retinol use at a 0.05% active concentration in the semi-occlusion patch vehicle formulation yielded a visual score of approximately 0.56 out of a 4 point scale in HE staining (measuring hematoxylin and eosin staining, an indication of viable epidermal thickness and health) with 63.6% of the subjects showing an improvement; a visual score of 0.6 out of a 4 point scale in M-TC staining (Masson's trichrome staining, assessing total mature fiber-forming collagen in the dermis—mainly Collagen I, […] and Collagen V) with 51.6% of the subjects showing an improvement; a visual score of 0.52 out of a 4 point scale for pro-Col (measuring new synthesis of Collagen I by skin fibroblasts in the dermis) with 51.6% of the subjects showing an improvement; and a visual score of 0.57 out of a 4 point scale for HA (measuring level of hyaluronic acid in both dermis and epidermis) with 50% of the subjects showing an improvement.

Structure (SMILES): CC1=C(/C=C/C(C)=C/C=C/C(C)=C/CO)C(C)(C)CCC1 [Retinol]
- subjects showing an improvement, HA: 50%
- subjects showing an improvement, HE staining: 63.6%
- subjects showing an improvement, M-TC staining: 51.6%
- subjects showing an improvement, pro-Col: 51.6%
- visual score HA (hyaluronic acid in dermis and epidermis) (out of a 4 point scale): 0.57
- visual score HE staining (viable epidermal thickness and health) (out of a 4 point scale): approximately 0.56
- visual score M-TC staining (total mature fiber-forming collagen in dermis) (out of a 4 point scale): 0.6
- visual score pro-Col (new synthesis of Collagen I) (out of a 4 point scale): 0.52
